Source: PubChem BioAssay (NCI)
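Dose response: 5 concentrations. Exposure: 48 h. Format: 96-well plates. Endpoint: linear interpolation; highest concentration if not reached. GI50 marks 50% less growth. TGI is the concentration that stops growth completely.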

How the values were obtained:
Assay in all cases: NCI anticancer screen, dose series, 48 h
A549 NSCLC = test system: A549 NSCLC
TK-10 renal = test system: TK-10 renal
UO-31 renal = test system: UO-31 renal
KM12 colon = test system: KM12 colon
M14 melanoma = test system: M14 melanoma
CCRF-CEM leukemia = test system: CCRF-CEM leukemia
OVCAR-3 ovarian = test system: OVCAR-3 ovarian
HCT-15 colon = test system: HCT-15 colon
BT-549 breast = test system: BT-549 breast
LOX IMVI melanoma = test system: LOX IMVI melanoma

| SMILES | GI50 (A549 NSCLC) | TGI (A549 NSCLC) | GI50 (TK-10 renal) | TGI (TK-10 renal) | GI50 (UO-31 renal) | TGI (UO-31 renal) | GI50 (KM12 colon) | TGI (KM12 colon) | GI50 (M14 melanoma) | TGI (M14 melanoma) | GI50 (CCRF-CEM leukemia) | TGI (CCRF-CEM leukemia) | GI50 (OVCAR-3 ovarian) | TGI (OVCAR-3 ovarian) | GI50 (HCT-15 colon) | TGI (HCT-15 colon) | GI50 (BT-549 breast) | TGI (BT-549 breast) | TGI (LOX IMVI melanoma) | GI50 (LOX IMVI melanoma) |
| --- | --- | --- | --- | --- | --- | --- | --- | --- | --- | --- | --- | --- | --- | --- | --- | --- | --- | --- | --- | --- |
| Cc1nc2ccc(Nc3nc(NCCN4CCOCC4)nc(Nc4ccc(F)cc4)n3)cc2n1Cc1ccccc1 | 3.69 µM | > 100 µM | 7.26 µM | 32.2 µM | 1.78 µM | 8.2 µM | 3.82 µM | 19.9 µM | 1.86 µM | 3.66 µM | 2270 nM | 8.04 µM | 4.24 µM | 20.3 µM | 2.16 µM | 5.68 µM | 2130 nM | 9.33 µM | – | – |
| Cn1c(=O)nc2n(-c3cccc(F)c3)c3ccccc3nc-2c1=O | – | 53.5 µM | – | > 100 µM | – | > 100 µM | – | > 100 µM | – | 67.1 µM | – | 56.7 µM | – | 21.5 µM | – | 52.3 µM | – | – | 61.8 µM | – |
| CCNC(=O)C#CC(=O)NCC | > 10 µM | > 100 µM | > 10 µM | > 100 µM | > 10 µM | > 100 µM | > 10 µM | > 100 µM | > 10 µM | > 100 µM | > 10000 nM | > 72.3 µM | > 10 µM | > 100 µM | > 10 µM | > 61.4 µM | – | – | > 100 µM | > 10 µM |
| O=C(Nc1ccc(Cl)cc1)c1ccc(NC2=C(Cl)C(=O)N(Cc3ccccc3)C2=O)cc1 | 16.3 µM | 39.9 µM | – | – | 14.7 µM | 29.8 µM | 21.1 µM | 56.7 µM | 15.2 µM | 35.8 µM | – | – | 12.6 µM | 28 µM | 24.4 µM | > 100 µM | 15300 nM | 34.2 µM | 32.7 µM | 12.7 µM |
| CN1c2ccccc2N(C)C2C1N(C)c1ccccc1N2C (stereo not drawn) | – | > 100 µM | – | > 100 µM | – | 82.2 µM | – | > 100 µM | – | 65 µM | – | 9.73 µM | – | 50.2 µM | – | – | – | – | – | – |
| COc1cc(/C=C2\CC3C4CC=C5C[C@@H](OC(C)=O)CC[C@]5(C)C4CC[C@]3(C)C2=O)ccc1OCCCn1ccnc1 (stereo partly drawn) | 13 µM | 33.9 µM | 7.08 µM | 17.3 µM | 9.14 µM | 19.9 µM | 8.75 µM | 16.2 µM | 9.28 µM | 17.9 µM | – | – | 9.79 µM | 21.2 µM | 9.52 µM | 20.4 µM | – | – | 15.5 µM | 8.63 µM |
| CN1NC2(CCCCC2)ON=C1c1ccccc1 | – | > 100 µM | – | > 100 µM | – | – | – | > 100 µM | – | > 100 µM | – | > 100 µM | – | > 100 µM | – | > 100 µM | – | – | > 100 µM | – |
| NC1CCN(c2nc(Nc3cccc(C(F)(F)F)c3)c3c(=O)[nH]ccc3n2)CC1 | 1.34 µM | 2.99 µM | 1.3 µM | 2.72 µM | 1.19 µM | 2.62 µM | – | – | 1.01 µM | 2.23 µM | 1260 nM | 6.88 µM | – | – | 0.584 µM | 2.26 µM | 1590 nM | 3 µM | 2.72 µM | 1.33 µM |
